Experimental data: publication PMC4079327 (Journal of Medicinal Chemistry, 2014)

What was measured:
PfDHODH [1] = target: T1, PfDHODH (Plasmodium falciparum, UniProt Q08210, DEL384-413); assay: Isothermal titration calorimetry; type: binding; settings: ITC, 303 K; for ΔH PfDHODH: 1σ confidence interval in parentheses
T1 sequence (Q08210 with tags, fused parts or gaps DEL384-413): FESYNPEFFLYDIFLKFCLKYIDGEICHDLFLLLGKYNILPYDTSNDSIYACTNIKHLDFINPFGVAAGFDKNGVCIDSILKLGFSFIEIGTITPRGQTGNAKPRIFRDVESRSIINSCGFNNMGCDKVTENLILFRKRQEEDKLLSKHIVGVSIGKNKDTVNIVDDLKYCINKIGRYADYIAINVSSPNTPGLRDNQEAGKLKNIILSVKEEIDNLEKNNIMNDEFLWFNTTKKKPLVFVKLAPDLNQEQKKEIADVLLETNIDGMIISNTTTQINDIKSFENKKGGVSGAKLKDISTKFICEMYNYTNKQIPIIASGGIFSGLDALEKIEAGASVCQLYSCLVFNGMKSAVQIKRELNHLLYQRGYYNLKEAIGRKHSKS

HsDHODH L46A = HsDHODH L46A (Homo sapiens, UniProt Q02127, L45A); assay: biochemical
HsDHODH R136A = HsDHODH R136A (Homo sapiens, UniProt Q02127, R135A); assay: biochemical
HsDHODH L359A = HsDHODH L359A (Homo sapiens, UniProt Q02127, L358A); assay: biochemical
HsDHODH = HsDHODH (Homo sapiens, UniProt Q02127); assay: DHODH steady-state inhibition, DCIP assay; type: biochemical
rDHODH = rDHODH (Rattus norvegicus, UniProt Q63707); assay: DHODH steady-state inhibition, DCIP assay; type: biochemical
mDHODH = mDHODH (Mus musculus, UniProt O35435); assay: DHODH steady-state inhibition, DCIP assay; type: biochemical
dDHODH = dDHODH (Canis lupus familiaris, UniProt A0A8I3MWX2); assay: DHODH steady-state inhibition, DCIP assay; type: biochemical, dog
rat DHODH = rat DHODH (Rattus norvegicus, UniProt Q63707); assay: Isothermal titration calorimetry; type: binding; settings: ITC, 303 K; for ΔH rat DHODH: 1σ confidence interval in parentheses
P. falciparum 3D7 cells = settings: read-out: IC50 P. falciparum 3D7 cells; cited from earlier work
PfDHODH [2] = target: T2, PfDHODH (Plasmodium falciparum, UniProt Q08210); settings: read-out: IC50 PfDHODH; cited from earlier work
T2 sequence (Q08210 158-569): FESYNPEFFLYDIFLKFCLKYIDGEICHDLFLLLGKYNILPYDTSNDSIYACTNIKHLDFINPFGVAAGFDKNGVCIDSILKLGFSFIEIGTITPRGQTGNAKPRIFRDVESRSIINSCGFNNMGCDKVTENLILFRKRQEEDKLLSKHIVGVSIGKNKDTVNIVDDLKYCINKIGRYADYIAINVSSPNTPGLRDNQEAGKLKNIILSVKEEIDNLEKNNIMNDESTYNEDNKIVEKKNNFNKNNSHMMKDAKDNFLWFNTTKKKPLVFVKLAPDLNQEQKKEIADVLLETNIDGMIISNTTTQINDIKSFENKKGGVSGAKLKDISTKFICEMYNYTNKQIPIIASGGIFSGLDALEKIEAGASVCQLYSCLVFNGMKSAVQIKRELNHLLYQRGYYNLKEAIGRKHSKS

Sequence of HsDHODH R136A (Q02127 32-395 R135A): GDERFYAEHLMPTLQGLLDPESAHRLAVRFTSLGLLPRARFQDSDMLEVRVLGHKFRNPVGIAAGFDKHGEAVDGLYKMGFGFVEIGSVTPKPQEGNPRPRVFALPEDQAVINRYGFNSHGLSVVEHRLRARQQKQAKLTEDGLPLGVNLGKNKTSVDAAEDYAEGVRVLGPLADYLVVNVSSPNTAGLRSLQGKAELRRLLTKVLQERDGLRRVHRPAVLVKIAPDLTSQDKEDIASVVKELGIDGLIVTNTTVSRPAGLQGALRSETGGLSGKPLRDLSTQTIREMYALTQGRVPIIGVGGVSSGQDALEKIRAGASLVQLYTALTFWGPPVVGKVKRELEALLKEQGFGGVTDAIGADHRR
Sequence of rat DHODH (Q63707 32-395 limits assumed): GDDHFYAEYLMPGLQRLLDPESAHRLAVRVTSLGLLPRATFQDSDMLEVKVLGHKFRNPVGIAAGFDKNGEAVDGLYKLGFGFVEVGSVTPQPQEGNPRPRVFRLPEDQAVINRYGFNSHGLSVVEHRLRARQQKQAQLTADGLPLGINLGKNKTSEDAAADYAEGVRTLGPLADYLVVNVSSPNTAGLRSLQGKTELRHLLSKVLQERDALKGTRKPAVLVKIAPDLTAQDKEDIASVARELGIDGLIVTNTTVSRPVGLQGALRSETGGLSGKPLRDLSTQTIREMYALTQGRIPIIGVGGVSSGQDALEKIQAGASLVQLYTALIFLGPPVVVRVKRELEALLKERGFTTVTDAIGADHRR
Sequence of HsDHODH L46A (Q02127 32-395 L45A): as the sequence (Q02127 32-395 R135A) above, with L14A, A104R counted along it
Sequence of HsDHODH L359A (Q02127 32-395 L358A): as the sequence (Q02127 32-395 R135A) above, with A104R, L327A counted along it
Sequence of HsDHODH (Q02127 29-395 limits assumed): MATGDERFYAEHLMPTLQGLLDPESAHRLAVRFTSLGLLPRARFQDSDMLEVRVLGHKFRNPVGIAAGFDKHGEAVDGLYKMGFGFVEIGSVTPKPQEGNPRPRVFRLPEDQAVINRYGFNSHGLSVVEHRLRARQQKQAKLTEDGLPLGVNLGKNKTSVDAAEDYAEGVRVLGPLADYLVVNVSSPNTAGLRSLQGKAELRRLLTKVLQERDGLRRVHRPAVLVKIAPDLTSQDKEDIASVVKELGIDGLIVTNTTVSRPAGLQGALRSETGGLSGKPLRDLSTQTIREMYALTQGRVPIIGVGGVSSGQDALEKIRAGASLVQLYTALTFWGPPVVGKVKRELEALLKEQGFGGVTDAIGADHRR
Sequence of dDHODH (A0A8I3MWX2 29-395): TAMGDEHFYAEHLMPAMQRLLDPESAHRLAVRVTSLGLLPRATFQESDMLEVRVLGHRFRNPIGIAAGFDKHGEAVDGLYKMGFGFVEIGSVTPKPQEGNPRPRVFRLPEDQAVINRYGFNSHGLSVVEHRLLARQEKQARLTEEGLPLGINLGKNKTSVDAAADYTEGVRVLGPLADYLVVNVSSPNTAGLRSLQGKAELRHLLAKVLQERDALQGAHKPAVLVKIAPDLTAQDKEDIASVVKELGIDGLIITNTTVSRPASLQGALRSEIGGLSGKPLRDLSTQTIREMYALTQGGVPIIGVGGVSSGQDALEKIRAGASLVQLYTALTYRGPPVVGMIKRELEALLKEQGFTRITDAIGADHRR
Sequence of mDHODH (O35435 29-395 limits assumed): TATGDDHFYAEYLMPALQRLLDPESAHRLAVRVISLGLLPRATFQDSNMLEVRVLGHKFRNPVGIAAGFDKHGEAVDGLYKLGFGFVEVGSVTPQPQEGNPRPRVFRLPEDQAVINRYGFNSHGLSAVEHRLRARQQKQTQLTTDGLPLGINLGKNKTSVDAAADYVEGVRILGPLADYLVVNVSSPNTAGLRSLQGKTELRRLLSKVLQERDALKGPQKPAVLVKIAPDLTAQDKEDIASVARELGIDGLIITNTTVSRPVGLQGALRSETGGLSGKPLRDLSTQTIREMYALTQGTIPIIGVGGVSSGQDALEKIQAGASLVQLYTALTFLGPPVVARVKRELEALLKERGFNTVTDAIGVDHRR
Sequence of rDHODH (Q63707 29-395 limits assumed): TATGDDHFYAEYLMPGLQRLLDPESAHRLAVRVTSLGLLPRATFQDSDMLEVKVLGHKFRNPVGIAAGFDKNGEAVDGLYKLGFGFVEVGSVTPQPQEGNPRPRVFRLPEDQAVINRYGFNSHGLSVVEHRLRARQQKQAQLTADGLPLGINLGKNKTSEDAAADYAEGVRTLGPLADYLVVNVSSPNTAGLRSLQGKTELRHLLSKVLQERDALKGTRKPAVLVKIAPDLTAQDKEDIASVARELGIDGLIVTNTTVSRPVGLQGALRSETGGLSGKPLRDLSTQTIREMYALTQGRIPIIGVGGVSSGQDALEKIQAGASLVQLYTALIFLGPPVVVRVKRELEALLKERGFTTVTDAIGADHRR

Row | SMILES | –TΔS PfDHODH (PfDHODH [1]) | ΔH PfDHODH (PfDHODH [1]) | IC50 (HsDHODH L46A) | IC50 (HsDHODH R136A) | IC50 (HsDHODH L359A) | inhibition of the human enzyme (in words) (HsDHODH) | inhibition of rat DHODH (in words) (rDHODH) | inhibition of mouse DHODH (in words) (mDHODH) | inhibition of dog DHODH (in words) (dDHODH) | –TΔS rat DHODH (rat DHODH) | ΔH rat DHODH (rat DHODH) | IC50 (P. falciparum 3D7 cells) | IC50 (PfDHODH [2])
1 | Cc1cc(Nc2ccc(C(F)(F)F)c(F)c2)n2nc(C(C)(F)F)nc2n1 [Compound 10, 2-(1,1-difluoroethyl)-N-[3-fluoro-4-(trifluoromethyl)phenyl]-5-methyl [1,2,4]triazolo[1,5-a]pyrimidin-7-amine] | –2.1 kcal/mol | –9.0 (−9.3 to −8.7) kcal/mol | > 100 µM | > 100 µM | > 100 µM | – | – | – | – | – | – | – | –
2 | Cc1cc(Nc2ccc(C(F)(F)F)cc2)n2ncnc2n1 [Compound 8, (5-methyl[1,2,4]triazolo[1,5-a]pyrimidin-7-yl)(4-trifluoromethylphenyl)amine] | 1.5 kcal/mol | –10 (−12 to −9.8) kcal/mol | – | – | – | did not inhibit | did not inhibit | did not inhibit | did not inhibit | – | – | – | –
3 | Cc1cc(Nc2cc(F)c(C(F)(F)F)c(F)c2)n2nc(C(C)(F)F)nc2n1 [Compound 11, N-(3,5-difluoro-4-(trifluoromethyl)phenyl)-2-(1,1-difluoroethyl)-5-methyl[1,2,4]-triazolo-[1,5-a]pyrimidin-7-amine] | –3.3 kcal/mol | –8.1 (−8.8 to −7.5) kcal/mol | > 100 µM | > 100 µM | > 100 µM | – | – | – | – | –8.0 kcal/mol | –2.1 (−2.5 to −1.9) kcal/mol | – | –
4 | Cc1cc(Nc2ccc(C(F)(F)F)cc2)n2nc(C(C)(F)F)nc2n1 [Compound 5, 2-(1,1-difluoroethyl)-5-methyl-N-[4-(trifluoromethyl)phenyl]-[1,2,4]triazolo[1,5-a]pyrimidin-7-amine] | –2.2 kcal/mol | –8.3 (−9.2 to −7.5) kcal/mol | – | – | – | did not inhibit | – | – | – | – | – | – | –
5 | Cc1cc(Nc2cc(F)c(C(F)(F)F)c(F)c2)n2ncnc2n1 [Compound 9, N-(3,5-difluoro-4-(trifluoromethyl)phenyl)-5-methyl-[1,2,4]triazolo[1,5-a]pyrimidin-7-amine] | – | – | – | – | – | – | – | – | – | – | – | 0.22 µM | 0.13 µM
6 | Cc1cc(Nc2cc(F)c(C(F)(F)F)c(F)c2)n2nc(C(F)(F)F)nc2n1 [Compound 6, N-(3,5-difluoro-4-(trifluoromethyl)phenyl)-2-(trifluoromethyl)-5-methyl-[1,2,4]-triazolo[1,5-a]pyrimidin-7-amine] | –4.5 kcal/mol | –6.5 (−6.9 to −6.2) kcal/mol | > 100 µM | > 100 µM | – | – | – | – | – | – | –1.6 (−1.8 to −1.5) kcal/mol | – | –
